Experimental data taken from ChEMBL document CHEMBL5143608, “Peptide-based long-acting co-agonists of GLP-1 and cholecystokinin 1 receptors as novel anti-diabesity agents” (Eur J Med Chem, 2022).
Active and inactive are the calls of the source. The rule behind the calls is not given here. Where a SMILES comes first, the peptide text is derived from it. [ ]: non-standard residue; d: D form. Aib = CC(C)(N)C(=O)O

Assays:
[1] = molecular target: T1, Cholecystokinin receptor type A (Homo sapiens, UniProt P32238); test: Agonist activity at human CCK1R expressed in HEK293 cells assessed as ERK1/2 phosphorylation incubated for 5 mins by AlphaScreen assay; assay type: functional, cell-based; details: hek293
T1 sequence (P32238 whole entry): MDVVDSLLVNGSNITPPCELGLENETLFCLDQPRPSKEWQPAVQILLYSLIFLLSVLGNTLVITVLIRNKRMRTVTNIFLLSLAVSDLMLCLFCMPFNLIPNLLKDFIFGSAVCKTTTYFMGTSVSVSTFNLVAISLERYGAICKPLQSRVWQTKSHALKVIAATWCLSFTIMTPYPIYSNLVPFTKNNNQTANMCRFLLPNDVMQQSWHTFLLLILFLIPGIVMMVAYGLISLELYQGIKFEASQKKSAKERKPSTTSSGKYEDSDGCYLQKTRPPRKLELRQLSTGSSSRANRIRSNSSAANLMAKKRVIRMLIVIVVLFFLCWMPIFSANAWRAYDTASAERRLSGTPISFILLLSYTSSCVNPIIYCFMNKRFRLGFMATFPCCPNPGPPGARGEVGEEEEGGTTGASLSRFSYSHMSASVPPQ

[2] = molecular target: T2, CCK2R (gastrin/cholecystokinin type B receptor) (Homo sapiens, UniProt P32239); test: Agonist activity at human CCK2R expressed in HEK293 cells assessed as ERK1/2 phosphorylation incubated for 5 mins by AlphaScreen assay; assay type: functional, cell-based; details: human, HEK293 cells expressing human CCK2R
T2 sequence (P32239 whole entry): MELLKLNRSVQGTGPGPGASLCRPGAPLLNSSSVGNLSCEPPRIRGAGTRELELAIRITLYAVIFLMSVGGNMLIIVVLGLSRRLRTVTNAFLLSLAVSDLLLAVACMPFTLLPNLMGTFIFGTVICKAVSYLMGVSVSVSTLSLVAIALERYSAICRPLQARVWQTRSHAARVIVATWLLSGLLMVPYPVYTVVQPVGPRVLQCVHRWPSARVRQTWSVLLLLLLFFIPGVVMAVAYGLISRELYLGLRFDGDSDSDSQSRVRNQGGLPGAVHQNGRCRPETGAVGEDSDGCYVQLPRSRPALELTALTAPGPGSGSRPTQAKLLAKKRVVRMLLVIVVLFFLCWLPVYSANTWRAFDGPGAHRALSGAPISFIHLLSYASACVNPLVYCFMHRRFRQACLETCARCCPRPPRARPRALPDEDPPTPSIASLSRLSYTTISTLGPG

Mus musculus [3] = test: Hypoglycemic activity in ICR mouse assessed as improvement in glucose tolerance at 25 nmol/kg, ip administered 30 min before oral glucose administration and measured upto 120 mins by OGTT; assay type: functional, organism-based
Mus musculus [4] = test: Anorectic activity in ICR mouse assessed as decrease in food intake at 25 nmol/kg, ip and measured after 9 hrs; assay type: functional, organism-based
Mus musculus [5] = test: Anorectic activity in ICR mouse assessed as decrease in food intake at 25 nmol/kg, ip and measured after 24 hrs; assay type: functional, organism-based
[6] = molecular target: Glucagon-like peptide 1 receptor (Homo sapiens, UniProt P43220); test: Agonist activity at human GLP-1R expressed in HEK293 cells assessed as cAMP release incubated for 20 min by HTRF analysis; assay type: functional, cell-based
Glucagon-like peptide 1 receptor, sequence (P43220 whole entry): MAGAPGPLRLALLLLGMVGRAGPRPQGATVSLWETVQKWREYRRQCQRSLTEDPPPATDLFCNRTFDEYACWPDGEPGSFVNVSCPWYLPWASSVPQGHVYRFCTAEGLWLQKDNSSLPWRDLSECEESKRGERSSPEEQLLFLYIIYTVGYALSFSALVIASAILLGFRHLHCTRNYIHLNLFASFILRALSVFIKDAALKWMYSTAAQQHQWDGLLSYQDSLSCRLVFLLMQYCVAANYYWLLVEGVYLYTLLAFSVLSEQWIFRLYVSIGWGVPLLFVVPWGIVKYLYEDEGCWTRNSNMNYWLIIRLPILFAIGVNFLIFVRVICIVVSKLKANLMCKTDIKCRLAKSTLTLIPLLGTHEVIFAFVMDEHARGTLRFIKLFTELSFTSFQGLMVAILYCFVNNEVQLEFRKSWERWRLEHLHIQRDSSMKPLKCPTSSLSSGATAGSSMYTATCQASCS

CCCC[C@H](NC(=O)[C@H](Cc1ccc(CS(=O)(=O)O)cc1)NC(=O)[C@H](CC(=O)O)NC(=O)COCCOCCNC(=O)COCCOCCNC(=O)[C@H](CCCNC(=N)N)NC(=O)CNC(=O)[C@H](CCCCN)NC(=O)[C@@H](NC(=O)[C@H](CC(C)C)NC(=O)[C@H](Cc1c[nH]c2ccccc12)NC(=O)[C@H](C)NC(=O)[C@@H](NC(=O)[C@H](Cc1ccccc1)NC(=O)[C@H](CCC(=O)O)NC(=O)[C@H](CCCCN)NC(=O)[C@H](C)NC(=O)[C@H](C)NC(=O)[C@H](CCC(N)=O)NC(=O)CNC(=O)[C@H](CCC(=O)O)NC(=O)[C@H](CC(C)C)NC(=O)[C@H](Cc1ccc(O)cc1)NC(=O)[C@H](CO)NC(=O)[C@H](CO)NC(=O)[C@@H](NC(=O)[C@H](CC(=O)O)NC(=O)[C@H](CO)NC(=O)[C@@H](NC(=O)[C@H](Cc1ccccc1)NC(=O)[C@@H](NC(=O)CNC(=O)[C@H](CCC(=O)O)NC(=O)[C@H](C)NC(=O)[C@@H](N)Cc1cnc[nH]1)[C@@H](C)O)[C@@H](C)O)C(C)C)[C@@H](C)CC)C(C)C)C(=O)NCC(=O)N[C@@H](Cc1c[nH]c2ccccc12)C(=O)N[C@@H](CCCC)C(=O)N(C)[C@H](CC(=O)O)C(=O)N(C)[C@@H](Cc1ccccc1)C(N)=O
EC50 [1]: 1.14 nM | EC50 at 5 min [2]: > 100 nM | Activity (Mus musculus [3]): Active | Activity (Mus musculus [4]): Active | Activity (Mus musculus [5]): Active

CC[C@H](C)[C@H](NC(=O)[C@H](CC(C)C)NC(=O)[C@H](Cc1c[nH]c2ccccc12)NC(=O)[C@H](CCC(=O)O)NC(=O)[C@@H](NC(=O)[C@H](Cc1ccccc1)NC(=O)[C@H](CCC(=O)O)NC(=O)[C@H](CCCCN)NC(=O)[C@H](C)NC(=O)[C@H](C)NC(=O)[C@H](CCC(=O)O)NC(=O)[C@H](CCC(=O)O)NC(=O)[C@H](CCC(=O)O)NC(=O)[C@H](CC(C)C)NC(=O)[C@@H](NC(=O)[C@H](CCC(=O)O)NC(=O)[C@@H](NC(=O)[C@@H](NC(=O)[C@H](CC(=O)O)NC(=O)[C@H](CC(N)=O)NC(=O)[C@@H](NC(=O)[C@H](Cc1ccc(O)cc1)NC(=O)[C@@H](NC(=O)CNC(=O)[C@H](CCC(=O)O)NC(=O)C(C)(C)NC(=O)[C@@H](N)Cc1cnc[nH]1)[C@@H](C)O)[C@@H](C)O)C(C)C)[C@@H](C)O)[C@@H](C)O)[C@@H](C)CC)C(=O)N[C@@H](CCCCN)C(=O)NCC(=O)N[C@@H](CCCCN)C(N)=O (H-H[Aib]EGTYTNDVTETLEEEAAKEFIEWLIKGK-NH2)
EC50 [6]: 0.056 nM

CCCC[C@H](NC(=O)[C@H](Cc1ccc(CS(=O)(=O)O)cc1)NC(=O)[C@H](CC(=O)O)NC(=O)COCCOCCNC(=O)COCCOCCNC(=O)[C@H](CCCCN)NC(=O)CNC(=O)[C@H](CCCCNC(=O)COCCOCCNC(=O)COCCOCCNC(=O)CC[C@H](NC(=O)CCCCCCCCCCCCCCCCC(=O)O)C(=O)O)NC(=O)[C@@H](NC(=O)[C@H](CC(C)C)NC(=O)[C@H](Cc1c[nH]c2ccccc12)NC(=O)[C@H](CCC(=O)O)NC(=O)[C@@H](NC(=O)[C@H](Cc1ccccc1)NC(=O)[C@H](CCC(=O)O)NC(=O)[C@H](CCCCN)NC(=O)[C@H](C)NC(=O)[C@H](C)NC(=O)[C@H](CCC(=O)O)NC(=O)[C@H](CCC(=O)O)NC(=O)[C@H](CCC(=O)O)NC(=O)[C@H](CC(C)C)NC(=O)[C@@H](NC(=O)[C@H](CCC(=O)O)NC(=O)[C@@H](NC(=O)[C@@H](NC(=O)[C@H](CC(=O)O)NC(=O)[C@H](CC(N)=O)NC(=O)[C@@H](NC(=O)[C@H](Cc1ccc(O)cc1)NC(=O)[C@@H](NC(=O)CNC(=O)[C@H](CCC(=O)O)NC(=O)C(C)(C)NC(=O)[C@@H](N)Cc1cnc[nH]1)[C@@H](C)O)[C@@H](C)O)C(C)C)[C@@H](C)O)[C@@H](C)O)[C@@H](C)CC)[C@@H](C)CC)C(=O)NCC(=O)N[C@@H](Cc1c[nH]c2ccccc12)C(=O)N[C@@H](CCCC)C(=O)N(C)[C@H](CC(=O)O)C(=O)N(C)[C@@H](Cc1ccccc1)C(N)=O
EC50 ([6]; hek293): 0.31 nM | EC50 [1]: 1.03 nM | EC50 at 5 min [2]: > 100 nM | Activity (Mus musculus [3]): Active | Activity (Mus musculus [4]): Active | Activity (Mus musculus [5]): Active

CCCC[C@H](NC(=O)[C@H](Cc1ccc(CS(=O)(=O)O)cc1)NC(=O)[C@H](CC(=O)O)NC(=O)COCCOCCNC(=O)COCCOCCNC(=O)[C@H](CCCCN)NC(=O)CNC(=O)[C@H](CCCCN)NC(=O)[C@@H](NC(=O)[C@H](CC(C)C)NC(=O)[C@H](Cc1c[nH]c2ccccc12)NC(=O)[C@H](CCC(=O)O)NC(=O)[C@@H](NC(=O)[C@H](Cc1ccccc1)NC(=O)[C@H](CCC(=O)O)NC(=O)[C@H](CCCCN)NC(=O)[C@H](C)NC(=O)[C@H](C)NC(=O)[C@H](CCC(=O)O)NC(=O)[C@H](CCC(=O)O)NC(=O)[C@H](CCC(=O)O)NC(=O)[C@H](CC(C)C)NC(=O)[C@@H](NC(=O)[C@H](CCC(=O)O)NC(=O)[C@@H](NC(=O)[C@@H](NC(=O)[C@H](CC(=O)O)NC(=O)[C@H](CC(N)=O)NC(=O)[C@@H](NC(=O)[C@H](Cc1ccc(O)cc1)NC(=O)[C@@H](NC(=O)CNC(=O)[C@H](CCC(=O)O)NC(=O)C(C)(C)NC(=O)[C@@H](N)Cc1cnc[nH]1)[C@@H](C)O)[C@@H](C)O)C(C)C)[C@@H](C)O)[C@@H](C)O)[C@@H](C)CC)[C@@H](C)CC)C(=O)NCC(=O)N[C@@H](Cc1c[nH]c2ccccc12)C(=O)N[C@@H](CCCC)C(=O)N(C)[C@H](CC(=O)O)C(=O)N(C)[C@@H](Cc1ccccc1)C(N)=O
EC50 ([6]; hek293): 0.092 nM | EC50 [1]: 0.95 nM | EC50 at 5 min [2]: > 100 nM | Activity (Mus musculus [3]): Active | Activity (Mus musculus [4]): Active | Activity (Mus musculus [5]): Active

CCCC[C@H](NC(=O)[C@H](Cc1ccc(CS(=O)(=O)O)cc1)NC(=O)[C@H](CC(=O)O)NC(=O)COCCOCCNC(=O)COCCOCCNC(=O)[C@H](CCCNC(=N)N)NC(=O)CNC(=O)[C@H](CCCCNC(=O)COCCOCCNC(=O)COCCOCCNC(=O)CC[C@H](NC(=O)CCCCCCCCCCCCCCCCC(=O)O)C(=O)O)NC(=O)[C@@H](NC(=O)[C@H](CC(C)C)NC(=O)[C@H](Cc1c[nH]c2ccccc12)NC(=O)[C@H](C)NC(=O)[C@@H](NC(=O)[C@H](Cc1ccccc1)NC(=O)[C@H](CCC(=O)O)NC(=O)[C@H](CCCCN)NC(=O)[C@H](C)NC(=O)[C@H](C)NC(=O)[C@H](CCC(N)=O)NC(=O)CNC(=O)[C@H](CCC(=O)O)NC(=O)[C@H](CC(C)C)NC(=O)[C@H](Cc1ccc(O)cc1)NC(=O)[C@H](CO)NC(=O)[C@H](CO)NC(=O)[C@@H](NC(=O)[C@H](CC(=O)O)NC(=O)[C@H](CO)NC(=O)[C@@H](NC(=O)[C@H](Cc1ccccc1)NC(=O)[C@@H](NC(=O)CNC(=O)[C@H](CCC(=O)O)NC(=O)[C@H](C)NC(=O)[C@@H](N)Cc1cnc[nH]1)[C@@H](C)O)[C@@H](C)O)C(C)C)[C@@H](C)CC)C(C)C)C(=O)NCC(=O)N[C@@H](Cc1c[nH]c2ccccc12)C(=O)N[C@@H](CCCC)C(=O)N(C)[C@H](CC(=O)O)C(=O)N(C)[C@@H](Cc1ccccc1)C(N)=O
EC50 [1]: 1.19 nM | EC50 at 5 min [2]: > 100 nM | Activity (Mus musculus [4]): Active | Activity (Mus musculus [5]): Active
